Drawing on patent US8552002B2 (Novartis AG, priority 2004, dated 2013), this text covers IC50, inhibition and GI50 for 1 compound.

Assay [1] addresses T1, FGFR35 (Homo sapiens, UniProt P22607). Kind of assay: FGFR35 (enzymatic assay), HTRF. It is filed as biochemical. Also on record: purchased Upstate. The following applies: purified FGFR35, 3 μM ATP; read-out: IC50 for the FGFR35 enzyme assay. How it is done: Kinase activity assay with purified FGFR35 (Upstate) is carried out in a final volume of 10 μL containing 0.25 μg/mL of enzyme in kinase buffer (30 mM Tris-HCl pH7.5, 15 mM MgCl2, 4.5 mM MnCl2, 15 μM Na3VO4 and 50 μg/mL BSA), and substrates (5 μg/mL biotin-poly-EY(Glu, Tyr) (CIS-US, Inc.) and 3 μM ATP). Two solutions are made: the first solution of 5 μl contains the FGFR35 enzyme in kinase buffer was first dispensed into 384—format ProxiPlate® (Perkin-Elmer) followed by adding 50 nL of compounds dissolved in DMSO, then 5 μl of second solution contains the substrate (poly-EY) and ATP in kinase buffer was added to each wells. The reactions are incubated at room temperature for one hour, stopped by adding 10 μL of HTRF detection mixture, which contains 30 mM Tris-HCl pH7.5, 0.5 M KF, 50 mM ETDA, 0.2 mg/mL BSA, 15 μg/mL streptavidin-XL665 (CIS-US, Inc.) and 150 ng/mL cryptate conjugated anti-phosphotyrosine antibody (CIS-US, Inc.). After one hour of room temperature incubation to allow for streptavidin-biotin interaction, time resolved florescent signals are read on Analyst GT (Molecular Devices Corp.). IC50 values are calculated by linear regression analysis of the percentage inhibition of each compound at 12 concentrations (1:3 dilution from 50 μM to 0.28 nM).
In general terms: TR-FRET usually uses a lanthanide donor and a delayed reading to cut background.
Target sequence in this assay (P22607 23-806): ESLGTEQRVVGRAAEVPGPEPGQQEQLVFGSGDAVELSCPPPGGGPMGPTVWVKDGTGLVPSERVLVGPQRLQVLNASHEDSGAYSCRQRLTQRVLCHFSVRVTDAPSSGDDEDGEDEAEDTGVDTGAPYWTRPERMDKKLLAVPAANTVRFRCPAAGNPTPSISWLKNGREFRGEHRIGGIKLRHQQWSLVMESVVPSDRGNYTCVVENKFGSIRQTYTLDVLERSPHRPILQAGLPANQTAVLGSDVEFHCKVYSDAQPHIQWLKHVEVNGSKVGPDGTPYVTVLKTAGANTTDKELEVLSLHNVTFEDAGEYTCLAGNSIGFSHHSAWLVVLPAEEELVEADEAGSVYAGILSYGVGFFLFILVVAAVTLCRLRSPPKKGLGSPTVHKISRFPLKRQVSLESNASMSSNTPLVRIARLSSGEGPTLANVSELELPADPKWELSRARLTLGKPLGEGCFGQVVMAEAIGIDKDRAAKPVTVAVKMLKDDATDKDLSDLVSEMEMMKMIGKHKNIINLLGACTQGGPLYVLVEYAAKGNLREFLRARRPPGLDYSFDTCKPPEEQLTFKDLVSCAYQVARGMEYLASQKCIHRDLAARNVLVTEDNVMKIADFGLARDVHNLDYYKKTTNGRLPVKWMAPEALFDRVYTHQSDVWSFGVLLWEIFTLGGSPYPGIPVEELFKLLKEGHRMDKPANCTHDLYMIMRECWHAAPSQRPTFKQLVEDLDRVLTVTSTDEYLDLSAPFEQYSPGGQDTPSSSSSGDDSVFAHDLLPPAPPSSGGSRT

Assay [2] deals with T2, wild type Bcr-abl (Homo sapiens, UniProt P00519).
T2 construct: the major C-terminal part (exons 2-11) of the c-abl gene; expressed in transfected cells; host or cells: murine 32D (32D-p210) or Ba/F3 cells; the other entry of the earlier key: BCR (P11274, Breakpoint cluster region protein)
T2 sequence (P00519 with tags, fused parts or gaps): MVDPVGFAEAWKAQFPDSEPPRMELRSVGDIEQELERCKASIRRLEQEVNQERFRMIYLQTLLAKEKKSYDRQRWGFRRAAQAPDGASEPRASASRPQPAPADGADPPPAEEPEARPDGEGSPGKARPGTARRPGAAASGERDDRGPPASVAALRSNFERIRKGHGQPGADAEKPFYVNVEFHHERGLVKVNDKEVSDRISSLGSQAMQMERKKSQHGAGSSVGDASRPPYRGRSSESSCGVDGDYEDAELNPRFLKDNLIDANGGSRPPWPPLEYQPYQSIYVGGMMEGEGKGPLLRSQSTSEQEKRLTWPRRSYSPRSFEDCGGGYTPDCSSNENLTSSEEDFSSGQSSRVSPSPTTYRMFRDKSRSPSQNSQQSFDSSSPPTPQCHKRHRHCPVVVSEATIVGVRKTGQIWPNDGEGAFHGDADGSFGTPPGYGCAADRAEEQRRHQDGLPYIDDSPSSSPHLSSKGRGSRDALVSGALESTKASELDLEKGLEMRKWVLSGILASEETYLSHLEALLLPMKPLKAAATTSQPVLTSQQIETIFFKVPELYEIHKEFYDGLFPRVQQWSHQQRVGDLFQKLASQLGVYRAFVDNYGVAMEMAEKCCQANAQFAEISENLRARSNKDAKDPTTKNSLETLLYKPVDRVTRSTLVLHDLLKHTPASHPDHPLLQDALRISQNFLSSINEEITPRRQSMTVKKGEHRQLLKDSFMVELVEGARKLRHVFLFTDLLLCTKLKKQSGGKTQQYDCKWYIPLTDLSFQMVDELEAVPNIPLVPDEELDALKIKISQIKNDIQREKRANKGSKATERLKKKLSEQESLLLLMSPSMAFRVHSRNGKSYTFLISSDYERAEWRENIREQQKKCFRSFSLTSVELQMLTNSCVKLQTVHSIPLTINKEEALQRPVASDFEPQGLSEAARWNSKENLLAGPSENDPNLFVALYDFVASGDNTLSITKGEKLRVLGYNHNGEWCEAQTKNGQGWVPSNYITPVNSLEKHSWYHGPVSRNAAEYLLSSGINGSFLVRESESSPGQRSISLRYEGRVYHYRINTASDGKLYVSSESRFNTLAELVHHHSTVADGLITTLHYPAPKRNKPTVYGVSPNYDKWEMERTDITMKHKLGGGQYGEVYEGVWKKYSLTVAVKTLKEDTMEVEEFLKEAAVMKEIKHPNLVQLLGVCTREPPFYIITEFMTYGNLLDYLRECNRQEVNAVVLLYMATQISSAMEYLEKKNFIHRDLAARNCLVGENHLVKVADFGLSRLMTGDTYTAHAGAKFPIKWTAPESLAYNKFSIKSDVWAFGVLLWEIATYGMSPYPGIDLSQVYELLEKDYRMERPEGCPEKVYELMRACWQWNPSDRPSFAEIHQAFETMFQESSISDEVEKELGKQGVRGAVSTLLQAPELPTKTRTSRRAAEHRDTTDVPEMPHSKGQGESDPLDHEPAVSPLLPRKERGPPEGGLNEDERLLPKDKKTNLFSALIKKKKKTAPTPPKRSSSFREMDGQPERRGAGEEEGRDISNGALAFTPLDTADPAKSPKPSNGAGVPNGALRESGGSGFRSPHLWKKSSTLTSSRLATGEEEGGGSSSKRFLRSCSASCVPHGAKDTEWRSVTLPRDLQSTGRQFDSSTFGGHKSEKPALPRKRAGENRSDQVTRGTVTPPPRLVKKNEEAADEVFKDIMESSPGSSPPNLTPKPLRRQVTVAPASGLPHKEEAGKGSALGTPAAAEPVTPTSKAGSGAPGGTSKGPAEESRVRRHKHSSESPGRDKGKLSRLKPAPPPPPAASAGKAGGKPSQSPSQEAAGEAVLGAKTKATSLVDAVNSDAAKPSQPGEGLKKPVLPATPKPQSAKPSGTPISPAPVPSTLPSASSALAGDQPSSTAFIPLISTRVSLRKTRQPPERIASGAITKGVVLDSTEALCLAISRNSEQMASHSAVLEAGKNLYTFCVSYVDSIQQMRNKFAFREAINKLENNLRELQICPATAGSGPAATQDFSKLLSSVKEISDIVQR
Description: Antiproliferative effect on cells expressing wild type Bcr-abl. It is filed as cell-based. As to conditions: cell proliferation. How it is done:
32D-p210 cells are plated into 96 well TC plates at a density of 15,000 cells per well. 50 μL of two fold serial dilutions of the test compound (Cmax is 40 μM) are added to each well (STI571 is included as a positive control). After incubating the cells for 48 hours at 37° C., 5% CO2, 15 μL of MTT (Promega) is added to each well and the cells are incubated for an additional 5 hours. The optical density at 570 nm is quantified spectrophotometrically and IC50 values, the concentration of compound required for 50% inhibition, determined from a dose response curve.
Compounds of the invention are tested for their antiproliferative effect on Ba/F3 cells expressing either wild type or the mutant forms of BCR-Abl (G250E, E255V, T315I, F317L, M351T) that confers resistance or diminished sensitivity to STI571. The antiproliferative effect of these compounds on the mutant-BCR-Abl expressing cells and on the non transformed cells were tested at 10, 3.3, 1.1 and 0.37 μM as described above (in media lacking IL3). The IC50 values of the compounds lacking toxicity on the untransformed cells were determined from the dose response curves obtained as describe above.

The target in assay [3] is T1, FGFR35. Kind of assay: Upstate KinaseProfiler radio-enzymatic filter binding assay. Also on record: purchased Upstate. As to conditions: read-out: percentage inhibition of FGFR35. The assay is classed as biochemical. How it is done: Compounds of the invention are assessed for their ability to inhibit individual members of a panel of kinases (a partial, non-limiting list of kinases includes: Abl, BCR-Abl, BMX, FGFR35, Lck, JNK1, JNK2, CSK, RAF, MKK6 and P38). The compounds are tested in duplicates at a final concentration of 10 μM following this generic protocol. Note that the kinase buffer composition and the substrates vary for the different kinases included in the “Upstate KinaseProfiler™” panel. Kinase buffer (2.5 μL, 10×—containing MnCl2 when required), active kinase (0.001-0.01 Units; 2.5 μL), specific or Poly(Glu4-Tyr) peptide (5-500 μM or 0.01 mg/ml) in kinase buffer and […] are mixed in an eppendorf on ice. A Mg/ATP mix (10 μL; 67.5 (or 33.75) mM MgCl2, 450 (or 225) μM ATP and 1 μCi/μl [γ-^32P]-ATP (3000 Ci/mmol)) is added and the reaction is incubated at about 30° C. for about 10 minutes. […] The assay squares are transferred to a scintillation vial, 5 ml scintillation cocktail are added and ^32P incorporation (cpm) to the peptide substrate is quantified with a Beckman scintillation counter. Percentage inhibition is calculated for each reaction.
Target sequence in this assay (P22607 23-806): as the sequence (P22607 23-806) above

For assay [4], the target named is T1, FGFR35. Kind of assay: FGFR35 (cellular assay), proliferation of Ba/F3-TEL-FGFR35 cells. It is filed as cell-based. Set-up: fused on or other part: N-terminal part of TEL (ETV6), which acts as the oligomerising partner; it is fused to the part of FGFR3 that carries the kinase; P41212 (Transcription factor ETV6). As to conditions: 48 hours, read-out: IC50 for the FGFR35 cellular assay. How it is done:
Compounds of the invention are tested for their ability to inhibit transformed Ba/F3-TEL-FGFR35 cells proliferation, which is depended on FGFR35 cellular kinase activity. Ba/F3-TEL-FGFR35 are cultured up to 800,000 cells/mL in suspension, with RPMI 1640 supplemented with 10% fetal bovine serum as the culture medium. Cells are dispensed into 384-well format plate at 5000 cell/well in 50 μL culture medium. Compounds of the invention are dissolved and diluted in dimethylsulfoxide (DMSO). Twelve points 1:3 serial dilutions are made into DMSO to create concentrations gradient ranging typically from 10 mM to 0.05 μM. Cells are added with 50 nL of diluted compounds and incubated for 48 hours in cell culture incubator. AlamarBlue® (TREK Diagnostic Systems), which can be used to monitor the reducing environment created by proliferating cells, are added to cells at final concentration of 10%. After additional four hours of incubation in a 37° C. cell culture incubator, fluorescence signals from reduced AlamarBlue® (Excitation at 530 nm, Emission at 580 nm) are quantified on Analyst GT (Molecular Devices Corp.). IC50 values are calculated by linear regression analysis of the percentage inhibition of each compound at 12 concentrations.
Target sequence in this assay (P22607 472-761 limits assumed, stated change not applied): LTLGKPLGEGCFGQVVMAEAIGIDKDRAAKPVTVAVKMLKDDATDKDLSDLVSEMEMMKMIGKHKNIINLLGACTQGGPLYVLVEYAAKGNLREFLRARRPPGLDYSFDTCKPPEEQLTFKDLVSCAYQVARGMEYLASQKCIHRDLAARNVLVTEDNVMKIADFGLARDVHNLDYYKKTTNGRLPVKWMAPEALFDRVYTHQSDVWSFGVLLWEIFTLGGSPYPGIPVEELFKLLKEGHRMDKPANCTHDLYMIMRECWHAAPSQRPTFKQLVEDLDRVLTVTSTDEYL

With `Cc1ccc(NC(=O)c2cccc(C(F)(F)F)c2)cc1NC(=O)N(CCCN1CCCC1=O)c1cc(N)ncn1` [Example 215, N-(3-{3-(6-Amino-pyrimidin-4-yl)-3-[3-(2-oxo-pyrrolidin-1-yl)-propyl]-ureido}-4-methyl-phenyl)-3-trifluoromethyl-benzamide], the values for the 50% inhibitory concentration (IC50) in assay [1] and in assay [2] were 16 nM and 10 nM, respectively. In addition, the inhibition at 10 µM in assay [3] was 99%. In assay [4], the GI50 was 15 nM.

What is called IC50 is the concentration at which inhibition is half-maximal. Broadly, the inhibition is the change of the read-out against control, counted positive when it falls.
